According to US20250368628A1, “METHODS AND COMPOUNDS FOR MODULATING INHERITED GENETIC DISEASES” (Design Therapeutics, Inc., priority 2022, published 2025):

Tests used:
[1] = tested on: Myotonic Dystrophy 1 affected patient fibroblasts (Coriel GM04602; 1600 CTG repeats); experiment: DM1 foci reduction assay (EC50 assay; CAG10-Cy3 FISH, foci per nucleus); type: cell-based; conditions: Homo sapiens, Fibroblast; DM1 patient fibroblasts, 48 h treatment, foci per nucleus; read-out: DM1 EC50, 48 h
Summary of the method: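 Foci per nucleus counted by 20× imaging of 4 areas per well, after overnight FISH with 5 nM CAG10-Cy3 and DAPI staining of fixed, permeabilized cells. DM1 fibroblasts (GM04602, 1600 CTG) were dosed 48 h at 37 °C, 8 points, 3-fold dilutions, 3 μM top concentration.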

[2] = tested on: F35T cells; experiment: Foci reduction in FECD (CAG10-Cy3 FISH, foci per nucleus); type: cell-based; conditions: F35T cells, 48 h treatment, foci per nucleus; read-out: FECD EC50, 48 h
Summary of the method: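 Foci per nucleus were counted by imaging after overnight CAG10-Cy3 FISH at 37 °C (30% formamide, 2×SSC) with DAPI counterstain, on PFA-fixed, ethanol-permeabilized F35T cells. The cells, seeded at 5000 per well in supplemented Opti-MEM, had received 8-point compound dilutions for 48 h at 37 °C.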

| Compound | EC50 [1] | EC50 [2] |
| --- | --- | --- |
| CC(Nc1cc(C(=O)NCCC(=O)Nc2cn(C)c(C(=O)Nc3cc(C(=O)NCCCC(=O)Nc4cn(C)c(C(=O)NCCC(=O)Nc5cc(C(=O)Nc6cn(C)c(C(=O)NCCC(=O)NCCOCCOCCOCCOCCOCCN)n6)n(C)c5)n4)n(C)c3)n2)n(C)c1)c1nccn1C (centres unmarked) [Compound B-77] | 100 to 500 nM | 100 to 500 nM |
| C=C(NCCC(=O)Nc1cc(C(=O)Nc2cn(C)c(C(=O)NCCC(=O)NCCC)n2)n(C)c1)c1nc(NC(=O)CCCNC(=O)c2cc(NC(=O)c3nc(NC(=O)CCNC(=O)c4cc(NC(=O)c5nccn5C)cn4C)cn3C)cn2CCCn2cc(COCCOCCOCCOC)nn2)cn1C [Compound B-401] | 100 to 500 nM | < 100 nM |
| Cn1cc(NC(=O)c2nc(NC(=O)CCNC(=O)c3cc(NC(=O)c4nccn4C)cn3C)cn2C)cc1C(=O)NCCCC(=O)Nc1cn(C)c(C(=O)NCCC(=O)Nc2cc(C(=O)Nc3cn(C)c(C(N)=O)n3)n(C)c2)n1 [Compound B-308] | 100 to 500 nM | < 100 nM |
| CCCCCC(=O)N1CCC(C#CC#CC2CCN(CCOCCOCCOCCNC(=O)CCNC(=O)c3nc(NC(=O)c4cc(NC(=O)CCNC(=O)c5nc(NC(=O)CCCNC(=O)c6cc(NC(=O)c7nc(NC(=O)CCNC(=O)c8cc(NC(=O)c9nccn9C)cn8C)cn7C)cn6C)cn5C)cn4C)cn3C)CC2)CC1 [Compound B-171] | < 100 nM | 100 to 500 nM |
| CCCNC(=O)CCNC(=O)c1nc(NC(=O)c2cc(NC(=O)CCNC(=O)c3nc(NC(=O)CCCNC(=O)c4cc(NC(=O)c5nc(NC(=O)CCNC(=O)c6cc(NC(=O)c7nccn7C)cn6C)cn5C)cn4C)cn3C)cn2C)cn1C [Compound B-1] | 100 to 500 nM | < 100 nM |
| COCCOCCOCCOCCN(CCOCCOCCOCCOC)C(=O)CCCCn1cc(NC(=O)c2nc(NC(=O)CCNC(=O)c3cc(NC(=O)c4nccn4C)cn3C)cn2C)cc1C(=O)NCCCC(=O)Nc1cn(C)c(C(=O)NCCC(=O)Nc2cc(C(=O)Nc3cn(C)c(C(=O)NCCC(=O)NCCOCCOCCOCCN4CCC(C#CC#CC5CCNCC5)CC4)n3)n(C)c2)n1 [Compound B-229] | > 1000 nM | > 1000 nM |
| CCOC(=O)c1nc(NC(=O)c2cc(NC(=O)CCNC(=O)c3nc(NC(=O)CCCNC(=O)c4cc(NC(=O)c5nc(NC(=O)CCNC(=O)c6cc(NC(=O)c7nccn7C)cn6C)cn5C)cn4CCCCCCn4nnc5c4-c4ccccc4N(C(=O)CCC(=O)NCCOCCOCCCCCCCl)Cc4ccccc4-5)cn3C)cn2C)cn1C [Compound B-375] | > 1000 nM | > 1000 nM |
| Cn1cc(NC(=O)c2nc(NC(=O)CCNC(=O)c3cc(NC(=O)c4nccn4C)cn3C)cn2C)cc1C(=O)NCCCC(=O)Nc1cn(C)c(C(=O)NCCC(=O)Nc2cc(C(=O)Nc3cn(C)c(C(=O)NCCC(=O)N4CCN(C5CCNCC5)CC4)n3)n(C)c2)n1 [Compound B-117] | 100 to 500 nM | 500 to 1000 nM |
| CN(CCCN)CCCNC(=O)c1nc(NC(=O)c2cc(NC(=O)CCNC(=O)c3nc(NC(=O)CCCNC(=O)c4cc(NC(=O)c5nc(NC(=O)CCNC(=O)c6cc(NC(=O)c7nccn7C)cn6C)cn5C)cn4CCCCCCN=[N+]=[N-])cn3C)cn2C)cn1C [Compound B-364] | 100 to 500 nM | > 1000 nM |
| COCCOCCOCCOCCOCCOCCC(=O)NCCCCCCn1cc(NC(=O)c2nc(NC(=O)CCNC(=O)c3cc(NC(=O)c4nccn4C)cn3C)cn2C)cc1C(=O)NCCCC(=O)Nc1cn(C)c(C(=O)NCCC(=O)Nc2cc(C(=O)Nc3cn(C)c(C(=O)NCCC(=O)N4CCC(C#CC#CC5CCN(C(=O)OC(C)(C)C)CC5)CC4)n3)n(C)c2)n1 [Compound B-351] | > 1000 nM | < 100 nM |
| Cn1cc(NC(=O)c2nc(NC(=O)CCNC(=O)c3cc(NC(=O)c4nccn4C)cn3C)cn2C)cc1C(=O)NCCCC(=O)Nc1cn(C)c(C(=O)NCCC(=O)Nc2cc(C(=O)Nc3cn(C)c(C(=O)NCCC(=O)N4CC(c5cnc(CNC(=O)OCc6ccccc6)[nH]5)C4)n3)n(C)c2)n1 [Compound B-68] | 100 to 500 nM | 100 to 500 nM |
| CCCCn1cc(NC(=O)c2nc(NC(=O)CCNC(=O)c3cc(NC(=O)c4nccn4C)cn3C)cn2C)cc1C(=O)NCCCC(=O)Nc1cn(C)c(C(=O)NCCC(=O)Nc2cc(C(=O)Nc3cn(C)c(C(=O)NCCC(=O)NCCC)n3)n(C)c2)n1 [Compound B-321] | < 100 nM | < 100 nM |
| Cn1cc(NC(=O)c2nc(NC(=O)CCNC(=O)c3cc(NC(=O)c4nccn4C)cn3C)cn2C)cc1C(=O)NCCCC(=O)Nc1cn(C)c(C(=O)NCCC(=O)Nc2cc(C(=O)Nc3cn(C)c(C(=O)NCCC(=O)NCCOCCOCCOCCN4CCC(C#CC#CC5CCN(C(=O)C(C)(C)C)CC5)CC4)n3)n(C)c2)n1 [Compound B-123] | < 100 nM | 100 to 500 nM |
| Cn1cc(NC(=O)c2nc(NC(=O)CCNC(=O)c3cc(NC(=O)c4nccn4C)cn3C)cn2C)cc1C(=O)NCCCC(=O)Nc1cn(C)c(C(=O)NCCC(=O)Nc2cc(C(=O)Nc3cn(C)c(C(=O)NCCCO)n3)n(C)c2)n1 [Compound B-105] | 100 to 500 nM | 100 to 500 nM |
| CN(CCCN)CCCNC(=O)c1cc(NC(=O)CCNC(=O)c2nc(NC(=O)CCCNC(=O)c3cc(NC(=O)c4nc(NC(=O)CCNC(=O)c5cc(NC(=O)c6nccn6C)cn5C)cn4C)cn3CCCCCCN=[N+]=[N-])cn2C)cn1C [Compound B-358] | > 1000 nM | > 1000 nM |
| CN(C)CCCNC(=O)c1cc(NC(=O)CCNC(=O)c2nc(NC(=O)[C@H](N)CCNC(=O)c3cc(NC(=O)c4nc(NC(=O)CCNC(=O)c5cc(NC(=O)c6nccn6C)cn5C)cn4C)cn3C)cn2C)cn1C [Compound B-367] | > 1000 nM | > 1000 nM |
| CCCNC(=O)c1cc(NC(=O)CCNC(=O)c2nc(NC(=O)[C@H](N)CCNC(=O)c3cc(NC(=O)c4nc(NC(=O)CCNC(=O)c5cc(NC(=O)c6nccn6C)cn5C)cn4C)cn3C)cn2C)cn1C [Compound B-366] | > 1000 nM | > 1000 nM |
| CCCNC(=O)CCNC(=O)c1nc(NC(=O)c2cc(NC(=O)CCNC(=O)c3nc(NC(=O)CCCNC(=O)c4cc(NC(=O)c5nc(NC(=O)CCNC(=O)c6cc(NC(=O)c7nccn7C)cn6C)cn5C)cn4CCOCCNC(=O)OC(C)(C)C)cn3C)cn2C)cn1C [Compound B-372] | < 100 nM | < 100 nM |
| Cn1cc(NC(=O)c2nc(NC(=O)CCNC(=O)c3cc(NC(=O)c4nccn4C)cn3C)cn2C)cc1C(=O)NCCCC(=O)Nc1cn(C)c(C(=O)NCCC(=O)Nc2cc(C(=O)Nc3cn(C)c(C(=O)NCC#Cc4ccccc4)n3)n(C)c2)n1 [Compound B-245] | < 100 nM | < 100 nM |
| CCCNC(=O)CCNC(=O)c1nc(NC(=O)c2cc(NC(=O)CCNC(=O)c3nc(NC(=O)CCCNC(=O)c4cc(NC(=O)c5nc(NC(=O)CCNC(=O)c6cc(NC(=O)c7nccn7C)cn6C)cn5C)cn4CCCCN=[N+]=[N-])cn3C)cn2C)cn1C [Compound B-278] | < 100 nM | < 100 nM |
| CN1CCN(CCCNC(=O)CCNC(=O)c2nc(NC(=O)c3cc(NC(=O)CCNC(=O)c4nc(NC(=O)CCCNC(=O)c5cc(NC(=O)c6nc(NC(=O)CCNC(=O)c7cc(NC(=O)c8nccn8C)cn7C)cn6C)cn5C)cn4C)cn3C)cn2C)CC1 [Compound B-36] | 100 to 500 nM | 100 to 500 nM |
| Cn1cc(NC(=O)c2nc(NC(=O)CCNC(=O)c3cc(NC(=O)c4nccn4C)cn3C)cn2C)cc1C(=O)NCCCC(=O)Nc1cn(C)c(C(=O)NCCC(=O)Nc2cc(C(=O)Nc3cn(C)c(C(=O)NCCCOCOP(=O)(O)O)n3)n(C)c2)n1 [Compound B-332] | 100 to 500 nM | < 100 nM |
